Results from the NIST ThermoML archive (doi:10.1016/j.fluid.2011.08.020).
Numbers after ± are expanded uncertainties.

Details: Liquid, Variable volume cell

CCCCCCCCCCCCCCCC [hexadecane]
Details	mass density [kg/m3]
323.65 K, 14900 kPa	758 ± 8
323.65 K, 27900 kPa	769 ± 8
323.65 K, 41500 kPa	779 ± 8
323.65 K, 55500 kPa	787 ± 8
323.65 K, 69400 kPa	792 ± 8
323.65 K, 81300 kPa	799 ± 8
323.65 K, 109700 kPa	807 ± 8
422.85 K, 14100 kPa	700 ± 7
422.85 K, 27900 kPa	713 ± 7
422.85 K, 41200 kPa	724 ± 7
422.85 K, 55500 kPa	734 ± 7
422.85 K, 69800 kPa	743 ± 7
422.85 K, 82800 kPa	750 ± 8
422.85 K, 108800 kPa	765 ± 8
422.85 K, 136900 kPa	778 ± 8
422.85 K, 170700 kPa	792 ± 8
422.85 K, 204300 kPa	804 ± 8
422.85 K, 236500 kPa	815 ± 8
422.85 K, 262300 kPa	823 ± 8
522.55 K, 15100 kPa	643 ± 6
522.55 K, 27100 kPa	660 ± 7
522.55 K, 42000 kPa	675 ± 7
522.55 K, 55400 kPa	687 ± 7
522.55 K, 69100 kPa	698 ± 7
522.55 K, 82100 kPa	707 ± 7
522.55 K, 107900 kPa	723 ± 7
522.55 K, 135800 kPa	738 ± 7
522.55 K, 170100 kPa	755 ± 8
522.55 K, 203300 kPa	769 ± 8
522.55 K, 235800 kPa	782 ± 8
522.55 K, 255000 kPa	788 ± 8

CCCCCCCCCCCCCCCCCCCC [eicosane]
Details	mass density [kg/m3]
323.65 K, 7300 kPa	771 ± 8
323.65 K, 14900 kPa	777 ± 8
323.65 K, 21400 kPa	784 ± 8
323.65 K, 27400 kPa	787 ± 8
323.65 K, 34200 kPa	789 ± 8
422.85 K, 7400 kPa	711 ± 7
422.85 K, 14300 kPa	719 ± 7
422.85 K, 20600 kPa	723 ± 7
422.85 K, 27900 kPa	730 ± 7
422.85 K, 34600 kPa	735 ± 7
422.85 K, 54200 kPa	748 ± 8
422.85 K, 81600 kPa	765 ± 8
422.85 K, 109200 kPa	781 ± 8
422.85 K, 136100 kPa	792 ± 8
422.85 K, 169500 kPa	806 ± 8
422.85 K, 203100 kPa	818 ± 8
422.85 K, 235500 kPa	829 ± 8
422.85 K, 260000 kPa	837 ± 8
522.55 K, 16400 kPa	661 ± 7
522.55 K, 28300 kPa	676 ± 7
522.55 K, 41900 kPa	691 ± 7
522.55 K, 55500 kPa	706 ± 7
522.55 K, 69600 kPa	719 ± 7
522.55 K, 82500 kPa	727 ± 7
522.55 K, 109200 kPa	744 ± 7
522.55 K, 138200 kPa	763 ± 8
522.55 K, 173100 kPa	777 ± 8
522.55 K, 204700 kPa	791 ± 8
522.55 K, 239800 kPa	805 ± 8
522.55 K, 258000 kPa	810 ± 8

CCCCCCCCCCCCCCCCCC [octadecane]
Details	mass density [kg/m3]
323.65 K, 7000 kPa	764 ± 8
323.65 K, 14400 kPa	769 ± 8
323.65 K, 28300 kPa	778 ± 8
323.65 K, 42200 kPa	788 ± 8
323.65 K, 55600 kPa	797 ± 8
323.65 K, 68900 kPa	800 ± 8
422.85 K, 7700 kPa	702 ± 7
422.85 K, 15100 kPa	711 ± 7
422.85 K, 29400 kPa	724 ± 7
422.85 K, 42500 kPa	732 ± 7
422.85 K, 56100 kPa	741 ± 7
422.85 K, 73200 kPa	752 ± 8
422.85 K, 84500 kPa	761 ± 8
422.85 K, 110000 kPa	774 ± 8
422.85 K, 138500 kPa	787 ± 8
422.85 K, 171700 kPa	801 ± 8
422.85 K, 206100 kPa	813 ± 8
422.85 K, 235500 kPa	823 ± 8
422.85 K, 255900 kPa	829 ± 8
522.55 K, 15300 kPa	651 ± 7
522.55 K, 29400 kPa	668 ± 7
522.55 K, 43200 kPa	681 ± 7
522.55 K, 56400 kPa	692 ± 7
522.55 K, 70800 kPa	703 ± 7
522.55 K, 84400 kPa	712 ± 7
522.55 K, 110000 kPa	727 ± 7
522.55 K, 137800 kPa	742 ± 7
522.55 K, 170400 kPa	757 ± 8
522.55 K, 205300 kPa	771 ± 8
522.55 K, 235700 kPa	782 ± 8
522.55 K, 257000 kPa	790 ± 8
